Values quoted from earlier work, collected in patent US6399797B1, “Vitamin D analogues” (Leo Pharmaceutical Products Ltd. A/S (Løvens kemiske Fabrik …, priority 1997, dated 2002).

Experiments:
[1] = test system: transplanted islets in diabetic NOD mice; details: alone or in combination with cyclosporin A
[2] = test system: experimental animal models; details: systemically administered
[3] = test system: cardiac and small bowel grafts; details: rats

| Compound | prevention of autoimmune destruction of transplanted islets [1] | immunosuppressive activities in vivo [2] | survival of cardiac and small bowel grafts [3] |
| --- | --- | --- | --- |
| C=C1/C(=C\C=C2/CCC[C@]3(C)[C@@H]([C@@H](C)OCCCC(O)(CC)CC)CC[C@@H]23)C[C@@H](O)C[C@@H]1O [KH 1060] | prevent autoimmune destruction of transplanted islets | have shown immunosuppressive activities in vivo | – |
| C=C1/C(=C\C=C2/CCC[C@]3(C)[C@@H]([C@H](C)CCCC(C)(C)O)CC[C@@H]23)C[C@@H](O)C[C@@H]1O [MC 1288] | – | have shown immunosuppressive activities in vivo | able to prolong survival of cardiac and small bowel grafts |
